Assay results published in ChEMBL document CHEMBL1146891, “Preparation of 1-(3-aminobenzo[d]isoxazol-5-yl)-1H-pyrazolo[4,3-d]pyrimidin-7(6H)-ones as potent, selective, and efficacious inhibitors of coagulation factor Xa” (Bioorg Med Chem Lett, 2006).

Key:
Coagulation factor X [1] = biological target: Coagulation factor X (Homo sapiens, UniProt P00742); test: Binding affinity to human f10a
Prothrombin = Prothrombin (Homo sapiens, UniProt P00734); test: Binding affinity to human thrombin
Trypsin = Trypsin (Homo sapiens, UniProt P07477+P07478+P35030); test: Binding affinity to human trypsin; format: protein assay
[2] = biological target: Vitamin K-dependent protein C (Homo sapiens, UniProt P04070); test: Binding affinity to human activated protein C
Vitamin K-dependent protein C, sequence (P04070 43-197 limits assumed): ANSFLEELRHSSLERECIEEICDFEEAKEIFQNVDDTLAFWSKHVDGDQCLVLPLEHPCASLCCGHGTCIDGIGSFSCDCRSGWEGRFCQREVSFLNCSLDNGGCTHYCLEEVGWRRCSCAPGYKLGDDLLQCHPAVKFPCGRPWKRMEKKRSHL
Vitamin K-dependent protein C, sequence (P04070 212-461 limits assumed): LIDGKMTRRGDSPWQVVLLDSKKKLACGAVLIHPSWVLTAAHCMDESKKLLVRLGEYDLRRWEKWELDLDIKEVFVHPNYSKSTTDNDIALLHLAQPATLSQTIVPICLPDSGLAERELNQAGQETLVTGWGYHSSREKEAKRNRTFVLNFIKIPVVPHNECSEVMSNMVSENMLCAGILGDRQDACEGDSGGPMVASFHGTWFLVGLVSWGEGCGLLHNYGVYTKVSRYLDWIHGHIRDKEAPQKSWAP

Coagulation factor IX = Coagulation factor IX (Homo sapiens, UniProt P00740); test: Binding affinity to human f9a
Coagulation factor IX, sequence (P00740 47-191 limits assumed): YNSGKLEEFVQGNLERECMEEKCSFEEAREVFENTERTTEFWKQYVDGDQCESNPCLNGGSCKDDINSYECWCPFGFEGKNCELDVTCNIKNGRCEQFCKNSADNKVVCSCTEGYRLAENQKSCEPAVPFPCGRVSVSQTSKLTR
Coagulation factor IX, sequence (P00740 227-461 limits assumed): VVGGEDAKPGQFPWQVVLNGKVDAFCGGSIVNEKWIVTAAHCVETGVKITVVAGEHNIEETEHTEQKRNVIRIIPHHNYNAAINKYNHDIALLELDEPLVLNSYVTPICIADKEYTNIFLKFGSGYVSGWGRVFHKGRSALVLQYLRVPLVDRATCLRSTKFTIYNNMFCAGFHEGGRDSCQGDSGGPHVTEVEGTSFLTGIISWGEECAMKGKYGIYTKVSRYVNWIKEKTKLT

Plasminogen = Plasminogen (Homo sapiens, UniProt P00747); test: Binding affinity to human plasmin
Plasminogen, sequence (P00747 97-580 limits assumed): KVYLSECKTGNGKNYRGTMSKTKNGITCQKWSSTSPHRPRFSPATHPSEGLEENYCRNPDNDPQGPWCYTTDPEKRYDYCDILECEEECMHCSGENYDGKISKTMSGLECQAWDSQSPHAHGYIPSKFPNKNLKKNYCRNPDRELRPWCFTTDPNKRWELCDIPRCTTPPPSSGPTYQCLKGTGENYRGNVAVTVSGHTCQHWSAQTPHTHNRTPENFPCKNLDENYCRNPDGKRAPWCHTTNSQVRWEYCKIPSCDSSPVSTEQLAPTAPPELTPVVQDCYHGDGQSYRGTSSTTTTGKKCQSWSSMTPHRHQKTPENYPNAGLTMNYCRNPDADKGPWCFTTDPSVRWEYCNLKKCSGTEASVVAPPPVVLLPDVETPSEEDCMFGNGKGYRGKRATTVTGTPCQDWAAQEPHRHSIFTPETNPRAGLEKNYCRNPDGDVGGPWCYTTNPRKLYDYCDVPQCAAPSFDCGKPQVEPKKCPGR
Plasminogen, sequence (P00747 581-810 limits assumed): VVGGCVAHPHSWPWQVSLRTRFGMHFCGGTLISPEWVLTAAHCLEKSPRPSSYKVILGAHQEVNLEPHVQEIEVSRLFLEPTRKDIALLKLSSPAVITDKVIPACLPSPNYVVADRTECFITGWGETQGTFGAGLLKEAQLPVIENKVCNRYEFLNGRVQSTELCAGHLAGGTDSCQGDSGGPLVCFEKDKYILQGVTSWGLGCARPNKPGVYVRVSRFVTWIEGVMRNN

[3] = biological target: Tissue-type plasminogen activator (Homo sapiens, UniProt P00750); test: Binding affinity to human tPA
Tissue-type plasminogen activator, sequence (P00750 whole entry): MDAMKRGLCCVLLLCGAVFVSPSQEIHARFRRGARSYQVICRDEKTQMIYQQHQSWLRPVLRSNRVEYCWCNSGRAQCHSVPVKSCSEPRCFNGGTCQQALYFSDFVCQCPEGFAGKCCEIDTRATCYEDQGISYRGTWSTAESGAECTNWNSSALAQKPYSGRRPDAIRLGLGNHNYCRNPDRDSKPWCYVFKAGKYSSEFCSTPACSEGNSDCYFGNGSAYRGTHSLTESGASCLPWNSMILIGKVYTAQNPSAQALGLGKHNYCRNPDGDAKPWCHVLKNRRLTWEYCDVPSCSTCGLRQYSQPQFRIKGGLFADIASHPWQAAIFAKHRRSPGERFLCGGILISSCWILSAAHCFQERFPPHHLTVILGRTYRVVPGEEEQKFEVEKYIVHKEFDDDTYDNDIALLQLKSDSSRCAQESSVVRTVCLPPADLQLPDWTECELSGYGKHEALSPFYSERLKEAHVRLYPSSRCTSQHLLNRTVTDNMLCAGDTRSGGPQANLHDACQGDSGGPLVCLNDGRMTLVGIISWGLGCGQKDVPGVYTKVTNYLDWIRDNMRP

[4] = biological target: Urokinase-type plasminogen activator (Homo sapiens, UniProt P00749); test: Binding affinity to human urokinase
Chymotrypsinogen B = Chymotrypsinogen B (Homo sapiens, UniProt P17538); test: Binding affinity to human chymotrypsin
Chymotrypsinogen B, sequence (P17538 34-164 limits assumed, other chains not shown): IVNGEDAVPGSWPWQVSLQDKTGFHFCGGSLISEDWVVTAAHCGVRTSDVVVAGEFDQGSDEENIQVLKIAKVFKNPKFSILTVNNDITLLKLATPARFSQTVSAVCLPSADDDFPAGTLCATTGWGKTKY
Chymotrypsinogen B, sequence (P17538 167-263 limits assumed, other chains not shown): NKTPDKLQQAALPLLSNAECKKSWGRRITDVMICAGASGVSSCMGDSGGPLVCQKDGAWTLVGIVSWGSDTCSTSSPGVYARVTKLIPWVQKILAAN

Coagulation factor X [5] = biological target: T1, Coagulation factor X (Oryctolagus cuniculus, UniProt O19045); test: Binding affinity to rabbit f10a
T1 sequence (O19045 whole entry): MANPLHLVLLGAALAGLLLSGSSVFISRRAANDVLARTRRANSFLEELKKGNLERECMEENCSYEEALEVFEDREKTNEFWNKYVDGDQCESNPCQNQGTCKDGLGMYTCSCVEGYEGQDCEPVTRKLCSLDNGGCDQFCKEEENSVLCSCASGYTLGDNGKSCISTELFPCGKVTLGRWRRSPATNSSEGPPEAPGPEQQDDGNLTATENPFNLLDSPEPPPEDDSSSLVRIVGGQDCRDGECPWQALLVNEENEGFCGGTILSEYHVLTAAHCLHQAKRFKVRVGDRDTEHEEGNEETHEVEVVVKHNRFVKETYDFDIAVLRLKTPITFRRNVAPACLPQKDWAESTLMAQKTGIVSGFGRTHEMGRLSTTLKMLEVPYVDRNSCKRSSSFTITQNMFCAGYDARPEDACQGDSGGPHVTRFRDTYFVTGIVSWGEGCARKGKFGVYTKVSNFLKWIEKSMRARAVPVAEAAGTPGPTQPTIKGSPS

Oryctolagus cuniculus = test: Inhibition of thrombus formation in iv dosed rabbit arterio-venous shunt model; format: functional, organism-based
[6] = Stability at pH 1.0; format: physicochemical; conditions: buffer
[7] = Stability at pH 4.0; format: physicochemical; conditions: buffer

Coagulation factor X (Homo sapiens, UniProt P00742), sequence (P00742 41-179 limits assumed): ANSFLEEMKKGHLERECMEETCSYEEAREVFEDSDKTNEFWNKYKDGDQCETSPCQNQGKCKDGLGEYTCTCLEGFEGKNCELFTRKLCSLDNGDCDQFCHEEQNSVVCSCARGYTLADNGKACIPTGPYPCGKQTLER
Coagulation factor X (Homo sapiens, UniProt P00742), sequence (P00742 235-488 limits assumed): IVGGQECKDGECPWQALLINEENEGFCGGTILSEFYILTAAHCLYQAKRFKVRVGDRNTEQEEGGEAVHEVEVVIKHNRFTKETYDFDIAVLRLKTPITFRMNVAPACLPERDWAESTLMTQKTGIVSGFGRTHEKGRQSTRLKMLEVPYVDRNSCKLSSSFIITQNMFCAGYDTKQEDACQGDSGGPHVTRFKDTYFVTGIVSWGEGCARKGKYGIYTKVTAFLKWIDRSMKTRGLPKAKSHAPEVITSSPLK

- Ki (Coagulation factor X [1]): 0.00027 µM
- Ki (Prothrombin): 0.305 µM
- Ki (Trypsin): > 4.2 µM
- Ki [2]: 19 µM
- Ki (Coagulation factor IX): > 41 µM
- Ki (Plasminogen): > 15 µM
- Ki [3]: 23 µM
- Ki [4]: > 13 µM
- Ki (Chymotrypsinogen B): 0.96 µM
- Ki (Coagulation factor X [5]): 0.0003 µM
- Stability [6]: 89.7%
- Stability [7]: 94.7%
Compound: Cc1nn(-c2ccc3onc(N)c3c2)c2c(=O)n(-c3ccc(-c4ccccc4CN(C)C)cc3)c(C)nc12
- ID50 (Oryctolagus cuniculus): 2 µmol/kg/h
